According to patent US9580430B2, “9H-pyrimido[4,5-B]indoles and related analogs as BET bromodomain inhibitors” (THE REGENTS OF THE UNIVERSITY OF MICHIGAN, priority 2014, dated 2017):
Read-outs that look alike come from different tables or passages of the source.

Key:
[1] = target: T1, recombinant BRD4 BD1 (Homo sapiens, UniProt O60885); test: Competitive fluorescence-polarization (FP) binding assay, BRD4 BD1; details: for Ki: read-out: Binding affinities (FP) BRD4BD1 Ki; for IC50 (nM) BRD4 BD1: probe 1.5 nM
T1 construct: for recombinant BRD4 BD1 and BRD4 BD2 proteins
Method: (§1) Fluorescence Polarization (FP) competitive binding studies were carried out using a FAM labeled fluorescent probe (ZBA248 or BRD-1F) to determine binding affinities of representative Compounds of the Disclosure for recombinant BRD4 BD1 and BRD4 BD2 proteins. For example, equilibrium dissociation constants (Kd) values of ZBA248 to these […] proteins were determined from protein saturation experiments by monitoring the total fluorescence polarization of mixtures composed with the fluorescent probe at a fixed concentration and proteins with increasing concentrations up to full saturation. Serial dilutions of testing protein were mixed with ZBA248 to a final volume of 200 μl in the assay buffer. […] Plates were incubated at room temperature for 30 minutes with gentle shaking to assure equilibrium. […] Kd values of ZBA248 were calculated by fitting the sigmoidal dose-dependent FP increases as a function of protein concentrations using Graphpad Prism 6.0 software (Graphpad Software, San Diego, Calif.).
(§2) The IC50 and Ki values of representative Compounds of the Disclosure were determined in a competitive binding experiment as described above. Mixtures of 10 μl of the tested compounds in assay buffer with 40% Ethylene Glycol and 190 μl of preincubated protein/probe complex solution in the assay buffer (100 mM potassium phosphate, pH 6.5, 0.01% Triton X-100) were added into assay plates which were incubated at room temperature for 30 minutes with gentle shaking. Final concentrations of proteins were 10 and 6 nM in assays for BD1 and BD2 of BRD4, respectively. […] FP values were measured as described above. IC50 values were determined by nonlinear regression fitting of the competition curves.

[2] = target: T2, recombinant BRD4 BD2 (Homo sapiens, UniProt O60885); test: Competitive fluorescence-polarization (FP) binding assay, BRD4 BD2; details: for Ki: read-out: Binding affinities (FP) BRD4BD2 Ki; for IC50 (nM) BRD4 BD2: probe 1.5 nM
T2 construct: for recombinant BRD4 BD1 and BRD4 BD2 proteins
Method: as §1, §2

[3] = test system: MDA-MB-436; test: Cell growth inhibition, MDA-MB-436 breast cancer cells (WST-8); format: cell-based; details: Homo sapiens, 4 days
Method: All the breast cancer cell lines were obtained from the ATCC. Cell viability was determined using the WST-8 (2-(2-methoxy-4-nitrophenyl)-3-(4-nitrophenyl)-5-(2,4-disulfophenyl)-2H-tetrazolium, monosodium salt) based Cell Counting-8 Kit (Dojindo Molecular Technologies, Inc., Rockville, Md.) according to the manufacture's instruction. […] The absorbance was measured at 450 nm using a SPECTRAmax PLUS plate reader (Molecular Devices, Sunnyvale, Calif.). The IC50 was calculated using the GraphPad Prism 5 software.

[4] = test system: MOLM-13; test: Cell growth inhibition, MOLM-13 leukemia cells (CellTiter-Glo); format: cell-based; details: Homo sapiens, MOLM-13, 96 h; 4 days; read-out: IC50 (nM) MOLM-13 Cell Line (CellTiter-Glo assay)
Method: Cell growth inhibitory activity of representative Compounds of the Disclosure was determined using CellTiter-Glo® Luminescent Cell Viability Assay. […] Cell viability was determined using the CellTiter-Glo® Luminescent Cell Viability Assay Kit (Promega, Madison, Wis.) according to the manufacture's instruction. Briefly, a volume of CellTiter-Glo® Reagent equal to the volume of cell culture medium was added to each well, and then the plates were incubated at room temperature for 10-20 minutes. The luminescent signal was measured using a Tecan Infinite M1000 multimode microplate reader (Tecan, Morrisville, N.C.). The half maximal inhibitory concentration (IC50) was calculated using the GraphPad Prism 5 software (GraphPad Software, La Jolla, Calif.).

[5] = competitive FP assay, protein 10 nM, probe […], read-out: IC50 (nM) BRD4 BD1
[6] = competitive FP assay, protein 6 nM, probe […], read-out: IC50 (nM) BRD4 BD2
[7] = MDA-MB-436, 96 h, read-out: IC50 (nM) MDA-MB-436 Cell Line (WST assay)
[8] = FP competitive binding, BRD4 BD1, read-out: Binding affinities (FP) BRD4BD1 IC50
[9] = FP competitive binding, BRD4 BD1
[10] = FP competitive binding, BRD4 BD2, read-out: Binding affinities (FP) BRD4BD2 IC50
[11] = FP competitive binding, BRD4 BD2
[12] = 96 h, MDA-MB-436 cells, read-out: Cellular data MDA-MB-436 IC50

Row | SMILES | IC50 [1, 5] [nM] | IC50 [2, 6] [nM] | IC50 [3, 7] [nM] | IC50 [4] [nM] | IC50 [1, 8] [nM] | Ki [1, 9] [µM] | IC50 [2, 10] [nM] | Ki [2, 11] [µM] | IC50 [3, 12] [nM]
1 | COc1cc2c(cc1-c1c(C)noc1C)[nH]c1nc(C)nc(Nc3c(C)nn4ccccc34)c12 [Cpd. No. 15, 7-(3,5-Dimethylisoxazol-4-yl)-6-methoxy-2-methyl-N-(2-methylpyrazolo[1,5-a]pyridin-3-yl)-9H-pyrimido[4,5-b]indol-4-amine] | 10.1 | 18.8 | 33.7 | 5.1 | – | – | – | – | –
2 | COc1cc2c(cc1-c1c(C)noc1C)[nH]c1nc(C)nc(Nc3nn(C)c4cccc(F)c34)c12 [Cpd. No. 132, 7-(3,5-Dimethylisoxazol-4-yl)-N-(4-fluoro-1-methyl-1H-indazol-3-yl)-6-methoxy-2-methyl-9H-pyrimido[4,5-b]indol-4-amine] | 68.6 | 718 | 224 | 97.5 | – | – | – | – | –
3 | COc1cc2c(cc1-c1c(C)noc1C)[nH]c1nc(C)nc(Nc3nn(C)c4ccccc34)c12 [Cpd. No. 12, 7-(3,5-Dimethylisoxazol-4-yl)-6-methoxy-2-methyl-N-(1-methyl-1H-indazol-3-yl)-9H-pyrimido[4,5-b]indol-4-amine] | – | 28.2 | 59.6 | 15.2 | – | – | – | – | –
4 | COc1cc2c(cc1-c1c(C)noc1C)[nH]c1nc(C)nc(Nc3cc(C)nn3-c3ccccc3)c12 [Cpd. No. 1, 7-(3,5-Dimethylisoxazol-4-yl)-6-methoxy-2-methyl-N-(3-methyl-1-phenyl-1H-pyrazol-5-yl)-9H-pyrimido[4,5-b]indol-4-amine] | – | 21.8 | 148 | 29.8 | – | – | – | – | –
5 | COc1cc2c(cc1-c1c(C)noc1C)[nH]c1nc(C)nc(Nc3sc(-c4ncco4)nc3-c3ccccc3)c12 [Cpd. No. 6, N-(7-(3,5-Dimethylisoxazol-4-yl)-6-methoxy-2-methyl-9H-pyrimido[4,5-b]indol-4-yl)-2-(oxazol-2-yl)-4-phenylthiazol-5-amine] | – | – | 1520 | 52.6 | – | – | – | – | –
6 | COc1cc2c(cc1-c1c(C)noc1C)[nH]c1nc(C)nc(Nc3c[nH]nc3-c3ccccc3)c12 [Cpd. No. 2, 7-(3,5-Dimethylisoxazol-4-yl)-6-methoxy-2-methyl-N-(3-phenyl-1H-pyrazol-4-yl)-9H-pyrimido[4,5-b]indol-4-amine] | – | 41.9 | 246 | 68 | – | – | – | – | –
7 | COc1cc2c(cc1-c1c(C)noc1C)[nH]c1nc(C)nc(Nc3cc(C(F)(F)F)nn3C(C)(C)C)c12 [Cpd. No. 117, N-(1-(tert-Butyl)-3-(trifluoromethyl)-1H-pyrazol-5-yl)-7-(3,5-dimethylisoxazol-4-yl)-6-methoxy-2-methyl-9H-pyrimido[4,5-b]indol-4-amine] | 62.4 | – | 177 | 90.9 | – | – | – | – | –
8 | COc1cc2c(cc1-c1c(C)noc1C)[nH]c1nc(C)nc(Nc3nn(C)c4ccc(F)cc34)c12 [Cpd. No. 127, 7-(3,5-Dimethylisoxazol-4-yl)-N-(5-fluoro-1-methyl-1H-indazol-3-yl)-6-methoxy-2-methyl-9H-pyrimido[4,5-b]indol-4-amine] | – | – | 508 | 178 | – | – | – | – | –

Results, then the molecule that gave them:

Row | IC50 [1, 5] [nM] | IC50 [2, 6] [nM] | IC50 [3, 7] [nM] | IC50 [4] [nM] | IC50 [1, 8] [nM] | Ki [1, 9] [µM] | IC50 [2, 10] [nM] | Ki [2, 11] [µM] | IC50 [3, 12] [nM] | SMILES
9 | 5 | 3 | 61 | 39 | – | – | – | – | – | COc1cc2c(cc1-c1c(C)noc1C)[nH]c1nc(C)nc(Nc3cc(C)ccc3C)c12 [Cpd. No. 238, 7-(3,5-dimethylisoxazol-4-yl)-N-(2,5-dimethylphenyl)-6-methoxy-2-methyl-9H-pyrimido[4,5-b]indol-4-amine]
10 | 14 | 59 | 117 | 49 | – | – | – | – | – | COc1cc2c(cc1-c1c(C)noc1C)[nH]c1nc(C)nc(Nc3cccc4c3ccn4C)c12 [Cpd. No. 236, 7-(3,5-dimethylisoxazol-4-yl)-6-methoxy-2-methyl-N-(1-methyl-1H-indol-4-yl)-9H-pyrimido[4,5-b]indol-4-amine]
11 | 24 | 22 | 88 | 69 | – | – | – | – | – | COc1cc2c(cc1-c1c(C)noc1C)[nH]c1nc(C)nc(Nc3cccc4ncsc34)c12 [Cpd. No. 229, N-(7-(3,5-dimethylisoxazol-4-yl)-6-methoxy-2-methyl-9H-pyrimido[4,5-b]indol-4-yl)benzo[d]thiazol-7-amine]
12 | 18 | 8 | 112 | 103 | – | – | – | – | – | COc1cc2c(cc1-c1c(C)noc1C)[nH]c1nc(C)nc(Nc3cccc(C)c3)c12 [Cpd. No. 212, 7-(3,5-dimethylisoxazol-4-yl)-6-methoxy-2-methyl-N-m-tolyl-9H-pyrimido[4,5-b]indol-4-amine]
13 | > 1000 | > 1000 | – | 1130 | – | – | – | – | – | COc1cc2c(cc1-c1c(C)noc1C)[nH]c1nc(C)nc(Nc3cccc4cccnc34)c12 [Cpd. No. 210, 7-(3,5-dimethylisoxazol-4-yl)-6-methoxy-2-methyl-N-(quinolin-8-yl)-9H-pyrimido[4,5-b]indol-4-amine]
14 | – | – | – | – | 378 | 0.14 | 346 | 0.101 | 1060 | COc1nc2c(cc1-c1c(C)noc1C)[nH]c1nc(C)nc(Nc3c(C)cnn3C(C)C)c12 [compound 312, 7-(3,5-dimethylisoxazol-4-yl)-N-(1-isopropyl-4-methyl-1H-pyrazol-5-yl)-6-methoxy-2-methyl-9H-pyrido[2′,3′:4,5]pyrrolo[2,3-d] pyrimidin-4-amine]
15 | 17 | 15 | – | 9340 | – | – | – | – | – | COc1cc(C)cc(Nc2nc(C)nc3[nH]c4cc(-c5c(C)noc5C)c(OC)cc4c23)c1 [Cpd. No. 218, 7-(3,5-dimethylisoxazol-4-yl)-6-methoxy-N-(3-methoxy-5-methylphenyl)-2-methyl-9H-pyrimido[4,5-b]indol-4-amine]
16 | – | – | – | – | 102 | 0.038 | 92 | 0.027 | 646 | COc1nc2c(cc1-c1c(C)noc1C)[nH]c1nc(C)nc(N(C)c3c(C)cnn3C(C)C)c12 [compound 319, 7-(3,5-dimethylisoxazol-4-yl)-N-(1-isopropyl-4-methyl-1H-pyrazol-5-yl)-6-methoxy-N,2-dimethyl-9H-pyrido[2′,3′:4,5]pyrrolo[2,3-d] pyrimidin-4-amine]
17 | – | – | – | – | 378 | 0.143 | 313 | 0.113 | 1280 | COc1nc2c(cc1-c1c(C)noc1C)[nH]c1nc(C)nc(Nc3cc(C)nn3C(C)(C)C)c12 [Cpd. No. 310, N-(1-(tert-butyl)-3-methyl-1H-pyrazol-5-yl)-7-(3,5-dimethylisoxazol-4-yl)-6-methoxy-2-methyl-9H-pyrido[2′,3′:4,5]pyrrolo[2,3-d] pyrimidin-4-amine]
18 | – | – | – | – | 317 | 0.106 | 311 | 0.106 | 1020 | COc1nc2c(cc1-c1c(C)noc1C)[nH]c1nc(C)nc(N(C)c3cc(C)nn3C(C)(C)C)c12 [compound 316, N-(1-(tert-butyl)-3-methyl-1H-pyrazol-5-yl)-7-(3,5-dimethylisoxazol-4-yl)-6-methoxy-N,2-dimethyl-9H-pyrido[2′,3′:4,5]pyrrolo [2,3-d]pyrimidin-4-amine]
19 | – | – | – | – | 4070 | 1.2 | 4070 | 1.14 | > 2000 | COc1nc2c(cc1-c1c(C)noc1C)[nH]c1nc(C)nc(Nc3cccc(C)c3)c12 [compound 313, 7-(3,5-dimethylisoxazol-4-yl)-6-methoxy-2-methyl-N-(m-tolyl)-9H-pyrido[2′,3′:4,5]pyrrolo[2,3-d] pyrimidin-4-amine]
